Test results reported in patent publication US20170355705A1 (GlaxoSmithKline Intellectual Property (No.2) Limited, priority 2014, published 2017).

Target: T1, SIRT1 (Homo sapiens, UniProt Q96EB6)
T1 sequence (Q96EB6 1-747): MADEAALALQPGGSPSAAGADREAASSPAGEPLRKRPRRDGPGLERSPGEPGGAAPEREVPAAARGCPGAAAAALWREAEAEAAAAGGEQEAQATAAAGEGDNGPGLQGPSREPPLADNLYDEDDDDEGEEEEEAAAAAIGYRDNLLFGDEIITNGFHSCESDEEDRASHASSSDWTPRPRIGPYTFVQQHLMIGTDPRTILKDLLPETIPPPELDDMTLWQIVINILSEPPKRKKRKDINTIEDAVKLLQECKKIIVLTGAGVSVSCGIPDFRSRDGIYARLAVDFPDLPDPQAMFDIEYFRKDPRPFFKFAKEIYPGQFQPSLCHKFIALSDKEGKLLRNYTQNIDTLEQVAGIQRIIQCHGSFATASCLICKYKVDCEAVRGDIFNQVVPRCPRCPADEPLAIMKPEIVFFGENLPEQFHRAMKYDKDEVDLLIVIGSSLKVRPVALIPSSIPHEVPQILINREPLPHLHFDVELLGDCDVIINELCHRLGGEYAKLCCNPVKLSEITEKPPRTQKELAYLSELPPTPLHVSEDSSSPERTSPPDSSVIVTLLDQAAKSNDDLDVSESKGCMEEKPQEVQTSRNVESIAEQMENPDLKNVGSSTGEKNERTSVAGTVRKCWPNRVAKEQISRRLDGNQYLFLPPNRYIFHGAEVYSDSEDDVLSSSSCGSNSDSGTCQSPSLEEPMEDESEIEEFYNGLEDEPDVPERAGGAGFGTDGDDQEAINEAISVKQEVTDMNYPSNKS
Test: Trp mass spectrometry assay of SIRT1 activity (EC1.5, percent maximum activation)
Assay type: biochemical
Settings: Trp mass spectrometry assay; for TRP Activity (EC1.5): EC1.5 = concentration giving 150% activation of SIRT1
Text: Mass spectrometry based assays were used to identify modulators of SIRT1 activity. […] The peptide was labeled with the fluorophore 5TMR (excitation 540 nm/emission 580 nm) at the C-terminus. The sequence of the peptide substrate was based on p53 with several modifications. In addition, the methionine residue naturally present in the sequence was replaced with the norleucine because the methionine may be susceptible to oxidation during synthesis and purification.
The Trp mass spectrometry assay was conducted as follows. […] The SIRT1 protein was obtained by cloning the SirT1 gene into a T7-promoter containing vector, which was then expressed in BL21(DE3) bacterial cells and purified as described in further detail below. Test compound was added at varying concentrations to this reaction mixture and the resulting reactions were monitored. After the 25 minute incubation with SIRT1, 10 μL of 10% formic acid was added to stop the reaction. The resulting reactions were sealed and frozen for later mass spec analysis. The relative SIRT1 activity was then determined by measuring the amount of O-acetyl-ADP-ribose (OAADPR) formed (or, alternatively, the amount of deacetylated Trp peptide generated) by the NAD-dependent sirtuin deacetylation reaction in the presence of varying concentrations of the test compound versus control reactions lacking the test compound. The degree to which the test agent activated deacetylation by SIRT1 was expressed as EC1.5 (i.e., the concentration of compound required to increase SIRT1 activity by 50% over the control lacking test compound), and Percent Maximum Activation (i.e., the maximum activity relative to control (100%) obtained for the test compound).
This time point was the same as that used for test compounds and, within the linear range, the endpoint represents a change in velocity.
For the above assay, SIRT1 protein was expressed and purified as follows. The SirT1 gene was cloned into a T7-promoter containing vector and transformed into BL21(DE3). The protein was expressed by induction with 1 mM IPTG as an N-terminal His-tag fusion protein at 18° C. overnight and harvested at 30,000×g. Cells were lysed with lysozyme in lysis buffer (50 mM Tris-HCl, 2 mM Tris[2-carboxyethyl]phosphine (TCEP), 10 μM ZnCl2, 200 mM NaCl) and further treated with sonication for 10 min for complete lysis. The protein was purified over a Ni-NTA column (Amersham) and fractions containing pure protein were pooled, concentrated and run over a sizing column (Sephadex S200 26/60 global). The peak containing soluble protein was collected and run on an Ion-exchange column (MonoQ). Gradient elution (200 mM-500 mM NaCl) yielded pure protein. This protein was concentrated and dialyzed against dialysis buffer (20 mM Tris-HCl, 2 mM TCEP) overnight. The protein was aliquoted and frozen at −80° C. until further use.
“NT” means not tested; “ND” means not determinable.

[1] = 0.5 μM peptide substrate, 120 μM βNAD+, 10 nM SIRT1, 25 minutes at 25° C.
[2] = percent maximum activation of SIRT1

SMILES | TRP Activity (EC1.5, concentration of test compound that results in 150% activation of SIRT1) [1] | TRP MAX RESP (percent maximum fold activation) [1] | TRP Activity (EC1.5) | TRP MAX RESP (percent maximum fold activation) [2]
CC1(C)CN(c2ccc3c(n2)N(C(=O)Nc2cnccn2)[C@H]2CCN3C2)CCO1 [Example 211, (4S)-7-(2,2-dimethylmorpholino)-N-(pyrazin-2-yl)-3,4-dihydro-1,4-methanopyrido[2,3-b][1,4]diazepine-5(2H)-carboxamide] | A (EC1.5<1 μM) | A (Fold activation ≧150%) |  | 
Cc1cc(-c2ccc3c(n2)N(C(=O)N2CCN(C)CC2)[C@H]2CCN3C2)ccn1 [Example 174, (4-methylpiperazin-1-yl)((4S)-7-(2-methylpyridin-4-yl)-3,4-dihydro-1,4-methanopyrido[2,3-b][1,4]diazepin-5(2H)-yl)methanone] |  |  | C (EC1.5>25 μM) | B (Fold Activation <150%)
O=C(Nc1cncc(OC[C@H](O)CO)c1)N1c2nc(-c3cccc(C(F)(F)F)c3)c(Cl)cc2N2CC[C@H]1C2 [Example 23, (4S)-8-chloro-N-(5-((R)-2,3-dihydroxypropoxy)pyridin-3-yl)-7-(3-(trifluoromethyl)phenyl)-3,4-dihydro-1,4-methanopyrido[2,3-b][1,4]diazepine-5(2H)-carboxamide] |  |  | A (EC1.5<1 μM) | A (Fold activation ≧150%)
O=C(Nc1ccc(OC[C@H](O)CO)nc1)N1c2nc(-c3cccc(C(F)(F)F)c3)c(Cl)cc2N2CC[C@H]1C2 [Example 77, (4S)-8-chloro-N-(6-((R)-2,3-dihydroxypropoxy)pyridin-3-yl)-7-(3-(trifluoromethyl)phenyl)-3,4-dihydro-1,4-methanopyrido[2,3-b][1,4]diazepine-5(2H)-carboxamide] |  |  | A (EC1.5<1 μM) | A (Fold activation ≧150%)
Cc1cc(-c2ccc3c(n2)N(C(=O)Nc2nccc(-c4cn(C)nc4C)n2)[C@H]2CCN3C2)ccn1 [Example 358, (4S)-N-(4-(1,3-dimethyl-1H-pyrazol-4-yl)pyrimidin-2-yl)-7-(2-methylpyridin-4-yl)-3,4-dihydro-1,4-methanopyrido[2,3-b][1,4]diazepine-5(2H)-carboxamide] | B (EC1.5 1-25 μM) | A (Fold activation ≧150%) |  | 
Cc1cc(-c2ccc3c(n2)N(C(=O)Nc2cccc4nnc(C)cc24)[C@H]2CCN3C2)ccn1 [Example 153, (4S)-N-(3-methylcinnolin-5-yl)-7-(2-methylpyridin-4-yl)-3,4-dihydro-1,4-methanopyrido[2,3-b][1,4]diazepine-5(2H)-carboxamide] |  |  | B (EC1.5 1-25 μM) | A (Fold activation ≧150%)
Cc1cc(-c2nc3c(cc2Cl)N2CC[C@@H](C2)N3C(=O)Nc2cc(OC[C@H](O)CO)ncn2)ccn1 [Example 95, (4S)-8-chloro-N-(6-((R)-2,3-dihydroxypropoxy)pyrimidin-4-yl)-7-(2-methylpyridin-4-yl)-3,4-dihydro-1,4-methanopyrido[2,3-b][1,4]diazepine-5(2H)-carboxamide] |  |  | C (EC1.5>25 μM) | B (Fold Activation <150%)
Cc1cc(-c2nc3c(cc2Cl)N2CC[C@@H](C2)N3C(=O)Nc2ccnc(O[C@@H]3CCOC3)n2)ccn1 [Example 22, (4S)-8-chloro-7-(2-methylpyridin-4-yl)-N-(2-(((R)-tetrahydrofuran-3-yl)oxy)pyrimidin-4-yl)-3,4-dihydro-1,4-methanopyrido[2,3-b][1,4]diazepine-5(2H)-carboxamide] |  |  | C (EC1.5>25 μM) | B (Fold Activation <150%)
Cc1cc(-c2ccc3c(n2)N(C(=O)Nc2nccc(C)n2)[C@H]2CCN3C2)ccn1 [Example 263] |  | A (Fold activation ≧150%) |  | 
CNc1cc(-c2ccc3c(n2)N(C(=O)Nc2cnccn2)[C@H]2CCN3C2)ccn1 [Example 144, (4S)-7-(2-(methylamino)pyridin-4-yl)-N-(pyrazin-2-yl)-3,4-dihydro-1,4-methanopyrido[2,3-b][1,4]diazepine-5(2H)-carboxamide] |  |  | B (EC1.5 1-25 μM) | A (Fold activation ≧150%)
O=C(Nc1ccc(OC[C@@H](O)CO)cn1)N1c2nc(-c3cccc(C(F)(F)F)c3)c(Cl)cc2N2CC[C@H]1C2 [Example 81, (4S)-8-chloro-N-(5-((S)-2,3-dihydroxypropoxy)pyridin-2-yl)-7-(3-(trifluoromethyl)phenyl)-3,4-dihydro-1,4-methanopyrido[2,3-b][1,4]diazepine-5(2H)-carboxamide] |  |  | B (EC1.5 1-25 μM) | A (Fold activation ≧150%)
Cc1cc(-c2ccc3c(n2)N(C(=O)Nc2cnccn2)[C@H]2CCN3C2)cnn1 [Example 212, (4S)-7-(6-methylpyridazin-4-yl)-N-(pyrazin-2-yl)-3,4-dihydro-1,4-methanopyrido[2,3-b][1,4]diazepine-5(2H)-carboxamide] | B (EC1.5 1-25 μM) | A (Fold activation ≧150%) |  | 
Cn1cc(-c2nc3c(cc2Cl)N2CC[C@@H](C2)N3C(=O)Nc2ccnc(OC[C@H](O)CO)c2)cn1 [Example 106, (4S)-8-chloro-N-(2-((R)-2,3-dihydroxypropoxy)pyridin-4-yl)-7-(1-methyl-1H-pyrazol-4-yl)-3,4-dihydro-1,4-methanopyrido[2,3-b][1,4]diazepine-5(2H)-carboxamide] |  |  | B (EC1.5 1-25 μM) | A (Fold activation ≧150%)
Cc1cc(-c2ccc3c(n2)N(C(=O)Nc2ccc4[nH]ncc4c2)[C@H]2CCN3C2)ccn1 [Example 157, (4S)-N-(1H-indazol-5-yl)-7-(2-methylpyridin-4-yl)-3,4-dihydro-1,4-methanopyrido[2,3-b][1,4]diazepine-5(2H)-carboxamide] |  |  | A (EC1.5<1 μM) | A (Fold activation ≧150%)
O=C(NCCO)N1c2nc(-c3cccc(C(F)(F)F)c3)ccc2N2CC[C@H]1C2 [Example 378, (4S)-N-(2-hydroxyethyl)-7-(3-(trifluoromethyl)phenyl)-3,4-dihydro-1,4-methanopyrido[2,3-b][1,4]diazepine-5(2H)-carboxamide] | B (EC1.5 1-25 μM) | A (Fold activation ≧150%) |  | 
Cc1cc(-c2ccc3c(n2)N(C(=O)Nc2cncc(C4CC4)n2)[C@H]2CCN3C2)ccn1 [Example 166, (4S)-N-(6-cyclopropylpyrazin-2-yl)-7-(2-methylpyridin-4-yl)-3,4-dihydro-1,4-methanopyrido[2,3-b][1,4]diazepine-5(2H)-carboxamide] |  |  | A (EC1.5<1 μM) | A (Fold activation ≧150%)
